Results taken from ChEMBL document CHEMBL6115011, “Optimizing biofilm inhibitors: Balancing activity and toxicity in 2N-aminated 5-aryl-2-aminoimidazoles” (Bioorg Med Chem, 2025).

Columns and labels:
Pseudomonas aeruginosa [1] = experiment: Inhibition of biofilm formation in Pseudomonas aeruginosa PA14 at 25 degree C measured after 24 hrs by crystal violet staining based analysis; assay type: functional, organism-based; conditions: PA14, 24 h
Staphylococcus aureus [2] = experiment: Inhibition of biofilm formation in Staphylococcus aureus SH1000 at 25 degree C measured after 48 hrs by crystal violet staining based analysis; assay type: functional, organism-based; conditions: SH1000, 48 h
Escherichia coli [3] = experiment: Inhibition of biofilm formation in Escherichia coli TG1 at 25 degree C measured after 24 hrs by crystal violet staining based microplate reader analysis; assay type: functional, organism-based; conditions: TG1, 24 h
Escherichia coli [4] = experiment: Antibacterial activity against Escherichia coli TG1 at 25 degree C measured after 24 hrs by crystal violet staining based microplate reader analysis; assay type: functional, organism-based; conditions: TG1, 24 h
Pseudomonas aeruginosa [5] = experiment: Antibacterial activity against Pseudomonas aeruginosa PA14 at 25 degree C measured after 24 hrs by crystal violet staining based microplate reader analysis; assay type: functional, organism-based; conditions: PA14, 24 h
Staphylococcus aureus [6] = experiment: Antibacterial activity against Staphylococcus aureus SH1000 at 25 degree C measured after 48 hrs by crystal violet staining based microplate reader analysis; assay type: functional, organism-based; conditions: SH1000, 48 h
[7] = Cytotoxicity against human PBMC cells assessed as survival rate at 400 uM measured after 72 hrs by trypan blue staining based assay (reference value: 48%); assay type: toxicity, cell-based; conditions: read-out: Survival
[8] = Genotoxicity in human CAPAN-1 cells at 100 to 400 uM measured after 3 hrs by Western blot analysis; assay type: toxicity, cell-based; conditions: capan-1, 3 h, dose 100-400 µM
Staphylococcus aureus [9] = experiment: Antibacterial activity against methicillin-resistant Staphylococcus aureus at 25 degree C measured after 48 hrs by crystal violet staining based microplate reader analysis; assay type: functional, organism-based
[10] = system: Staphylococcus epidermidis; experiment: Inhibition of biofilm formation in Staphylococcus epidermidis at 25 degree C measured after 48 hrs by crystal violet staining based analysis; assay type: functional, organism-based
Staphylococcus aureus [11] = experiment: Inhibition of biofilm formation in methicillin-resistant Staphylococcus aureus at 25 degree C measured after 48 hrs by crystal violet staining based analysis; assay type: functional, organism-based
[12] = Cytotoxicity against human PBMC cells assessed as survival rate at 25 to 100 uM measured after 72 hrs by trypan blue staining based assay; assay type: toxicity, cell-based; conditions: dose 25-100 µM
[13] = Toxicity in Caenorhabditis elegans CB5612 by wide field microscopy based analysis
[14] = Cytotoxicity against human PBMC cells assessed as survival rate at 400 uM measured after 72 hrs by trypan blue staining based assay relative to control; assay type: toxicity, cell-based; conditions: read-out: Survival
[15] = Cytotoxicity against human PBMC cells assessed as survival rate at 100 uM measured after 72 hrs by trypan blue staining based assay relative to control; assay type: toxicity, cell-based; conditions: read-out: Survival
K562 = experiment: Cytotoxicity against human K562 cells assessed as inhibition of cell growth measured after 72 hrs by CellTiter 96 Aqueous One Solution Cell Proliferation Assay; assay type: functional
[16] = Cytotoxicity against human DND41 cells assessed as inhibition of cell growth measured after 72 hrs by CellTiter 96 Aqueous One Solution Cell Proliferation Assay; assay type: functional
HL-60 = experiment: Cytotoxicity against human HL-60 cells assessed as inhibition of cell growth measured after 72 hrs by CellTiter 96 Aqueous One Solution Cell Proliferation Assay; assay type: functional
[17] = Cytotoxicity against human PBMC cells assessed as survival rate at 25 uM measured after 72 hrs by trypan blue staining based assay relative to control; assay type: toxicity, cell-based; conditions: read-out: Survival
[18] = system: Staphylococcus epidermidis; experiment: Antibacterial activity against Staphylococcus epidermidis at 25 degree C measured after 48 hrs by crystal violet staining based microplate reader analysis; assay type: functional, organism-based
Z-138 = experiment: Cytotoxicity against human Z138 cells assessed as inhibition of cell growth measured after 72 hrs by CellTiter 96 Aqueous One Solution Cell Proliferation Assay; assay type: functional
[19] = Genotoxicity in human CAPAN-1 cells assessed as fold change at 400 uM measured after 3 hrs by Western blot analysis; assay type: toxicity, cell-based; conditions: capan-1, 3 h
NCI-H460 = experiment: Cytotoxicity against human NCI-H460 cells assessed as inhibition of cell growth measured after 72 hrs by CellTiter 96 Aqueous One Solution Cell Proliferation Assay; assay type: functional
CAPAN-1 = experiment: Cytotoxicity against human CAPAN-1 cells assessed as inhibition of cell growth measured after 72 hrs by CellTiter 96 Aqueous One Solution Cell Proliferation Assay; assay type: functional
LN-229 = experiment: Cytotoxicity against human LN-229 cells assessed as inhibition of cell growth measured after 72 hrs by CellTiter 96 Aqueous One Solution Cell Proliferation Assay; assay type: functional
HCT-116 = experiment: Cytotoxicity against human HCT-116 cells assessed as inhibition of cell growth measured after 72 hrs by CellTiter 96 Aqueous One Solution Cell Proliferation Assay; assay type: functional
[20] = Toxicity in Caenorhabditis elegans CB5612 assessed as increase in food depletion delay by wide field microscopy based analysis
[21] = Genotoxicity in human CAPAN-1 cells assessed as fold change at 100 uM measured after 3 hrs by Western blot analysis; assay type: toxicity, cell-based; conditions: capan-1, 3 h

Structure (SMILES)	IC50 (Pseudomonas aeruginosa [1]) [µM]	IC50 (Staphylococcus aureus [2]) [µM]	IC50 (Escherichia coli [3]) [µM]	IC50 (Escherichia coli [4]) [µM]	IC50 (Pseudomonas aeruginosa [5]) [µM]	IC50 (Staphylococcus aureus [6]) [µM]	IC50 (Staphylococcus aureus [9]) [µM]	IC50 [10] [µM]	IC50 (Staphylococcus aureus [11]) [µM]	IC50 [18] [µM]	fold change (FC) [19]	also measured
CCCCCCCCNc1ncc(-c2ccc(Cl)cc2)[nH]1	> 200	43.1	8.42	72.3	70.2	84.4	–	–	–	–	–	–
NCCCCCCCCn1c(-c2ccccc2)cnc1NC1CCCC1	107	70.4	33.5	85.1	74.4	79.4	–	–	–	–	–	–
CCCCCCCCn1c(-c2ccccc2)cnc1NC1CCCC1	> 800	8.34	6.55	8.37	20.6	8.35	–	–	–	–	–	–
NCCCCNc1ncc(-c2ccccc2)[nH]1	17	155	35.3	56.6	85.8	287	578	33.3	138	–	–	viability at 72 h, 400 µM [7]: 9%; Activity [8]: Non-toxic; Activity [12]: Non-toxic
NCCCCNc1ncc(-c2ccc(F)cc2)[nH]1	4.5	167	14.9	31.5	34.6	176	217	6.1	98.1	–	–	Activity [13]: Toxic
NCCCCCCCCn1c(-c2ccc(Br)cc2)cnc1NC1CCCC1	147	167	25.2	43.4	61.4	56.1	–	–	–	–	–	viability at 72 h, 400 µM [14]: 48%
NCCCCCCCCNc1ncc(-c2ccc(Cl)cc2)[nH]1	19.2	15.8	16.6	16.9	21	12.5	93.7	59.6	34.8	51.2	12.1	viability at 72 h, 100 µM [15]: 17.5%; CC50 (K562; Homo sapiens, K562, 72 h): 20 µM; CC50 [16]: 20 µM; CC50 (HL-60): 20 µM; viability at 72 h, 25 µM [17]: 79.6%; CC50 (Z-138; 72 h): 20 µM; CC50 (Z-138; Homo sapiens, Z-138, 72 h): 21.6 µM; viability at 72 h, 400 µM [14]: 0.5%
NCCCCCCNc1ncc(-c2ccc(Cl)cc2)[nH]1	4.24	86.5	3.28	16.1	22.3	71.2	16.1	42.1	28.3	90.8	14.6	CC50 (NCI-H460): 40 µM; CC50 (K562; Homo sapiens, K562, 72 h): 36.2 µM; CC50 (CAPAN-1): 40 µM; CC50 (LN-229; Homo sapiens, LN-229, 72 h): 40 µM; CC50 (HL-60): 13.2 µM; CC50 (Z-138; Homo sapiens, Z-138, 72 h): 11 µM; CC50 (HCT-116): 40 µM
NCCCCCCCNc1ncc(-c2ccccc2)[nH]1	12.4	64.7	17.3	39.7	33.3	106	72.6	12.3	48.9	–	–	CC50 (NCI-H460): 68.8 µM; CC50 (CAPAN-1): 41.1 µM; Activity [8]: Non-toxic
NCCCCCCCCCCCCNc1ncc(-c2ccccc2)[nH]1	6.7	25.4	9.6	9.5	12.3	14	19.7	23.8	12.8	32	1.95	viability at 72 h, 100 µM [15]: < 50%; Time [20]: 3.5 days; fold change (FC) [21]: 2.75; viability at 72 h, 25 µM [17]: 6%; viability at 72 h, 400 µM [14]: 4.5%
NCCCCCCCCCCCNc1ncc(-c2ccccc2)[nH]1	8.3	37.5	15.5	14.2	16.7	28.6	47.7	1.8	18.1	25	1.75	Time [20]: 3 days
NCCCCCCCCNc1ncc(-c2ccc(F)cc2)[nH]1	13.1	47.6	12.8	21.6	26.6	90.7	79.9	15.7	36.8	–	2.35	Activity [13]: Toxic; viability at 72 h, 100 µM [15]: 70%; CC50 [16]: 46.4 µM; viability at 72 h, 25 µM [17]: 56.4%; viability at 72 h, 400 µM [14]: 22.9%; CC50 (HCT-116): 29.9 µM
CCCCCCNc1ncc(-c2ccc(Cl)cc2)[nH]1	40.6	141	11.3	21.8	38.7	186	–	–	–	–	–	–
NCCCCCCCCNc1ncc(-c2ccccc2)[nH]1	12.7	21.1	13.5	15.6	21.1	40.6	45.4	3.5	35.3	20.4	–	viability at 72 h, 100 µM [15]: < 50%; CC50 (NCI-H460): 30 µM; CC50 (K562; 72 h): 30 µM; CC50 (K562; Homo sapiens, K562, 72 h): 57.4 µM; CC50 (CAPAN-1): 30 µM; CC50 (LN-229; 72 h): 30 µM; CC50 (LN-229; Homo sapiens, LN-229, 72 h): 52.9 µM; Activity [8]: Non-toxic; CC50 [16]: 58.3 µM; CC50 (HL-60): 30 µM; CC50 (Z-138; 72 h): 30 µM; CC50 (Z-138; Homo sapiens, Z-138, 72 h): 49.7 µM
CCCCCCCCn1c(-c2ccc(Br)cc2)cnc1NC1CCCC1	> 800	63.2	14	25.7	25.2	33.1	–	–	–	–	–	–
NCCCCCCNc1ncc(-c2ccc(Br)cc2)[nH]1	11.2	59.6	14.2	21	27.4	38.6	106	35.3	60	85.2	5.75	CC50 (NCI-H460): 40 µM; Time [20]: 0.66 days; fold change (FC) [21]: 2.3; CC50 (CAPAN-1): 40 µM; CC50 (LN-229; Homo sapiens, LN-229, 72 h): 40 µM; CC50 (HCT-116): 40 µM
NCCCCCNc1ncc(-c2ccccc2)[nH]1	16.5	91.7	38.3	80	61.2	224	503	25.6	154	–	–	Activity [8]: Non-toxic
NCCCCCCCCNc1ncc(-c2ccc(Br)cc2)[nH]1	7.8	46.1	6.8	17.6	14.5	36.7	61.8	12.6	26.3	–	–	Activity [13]: Toxic; viability at 72 h, 100 µM [15]: 94%; CC50 (NCI-H460): 30 µM; CC50 (K562; Homo sapiens, K562, 72 h): 30 µM; CC50 (CAPAN-1): 30 µM; CC50 (LN-229; Homo sapiens, LN-229, 72 h): 30 µM; CC50 (HL-60): 30 µM; viability at 72 h, 25 µM [17]: 79.8%; CC50 (Z-138; Homo sapiens, Z-138, 72 h): 30 µM; viability at 72 h, 400 µM [14]: 30.2%
NCCCCCCCCCCNc1ncc(-c2ccccc2)[nH]1	16.8	24.9	18.6	17.8	60.7	15.3	23.8	8.2	19.8	25.7	2	CC50 (HL-60): 47.1 µM; CC50 (HCT-116): 46.9 µM
CCc1c2c(nc3ccc(O)cc13)-c1cc3c(c(=O)n1C2)COC(=O)[C@]3(O)CC [7-ETHYL-10-HYDROXYCAMPTOTHECIN]	–	–	–	–	–	–	–	–	–	–	9	fold change (FC) [21]: > 7
OB(O)O [BORIC ACID]	–	–	–	–	–	–	–	–	–	–	–	Time [20]: > 10 days
COc1cc([C@@H]2c3cc4c(cc3[C@@H](O[C@@H]3O[C@@H]5CO[C@@H](C)O[C@H]5[C@H](O)[C@H]3O)[C@H]3COC(=O)[C@H]23)OCO4)cc(OC)c1O [ETOPOSIDE]	–	–	–	–	–	–	–	–	–	–	> 8	viability at 72 h, 100 µM [15]: 71%; fold change (FC) [21]: 10; viability at 72 h, 25 µM [17]: < 67%; viability at 72 h, 400 µM [14]: 38%
